The values that follow are results of earlier work, collected in patent US20110118355A1, “TREATMENT OF MIGRAINE HEADACHES USING ANTIESTROGENS” (priority 2007, published 2011).

The conditions of this series: one person, no aura, headache accompanied by fever; Letter to the Editor, Headache 32:315 (1992).

With `CCN(CC)CCOc1ccc(C(=C(Cl)c2ccccc2)c2ccccc2)cc1` [clomiphene], the “clinical benefit in headaches diagnosed as common migraine” value is given as “benefited”.
